Data reported in patent US12491170B2, “Stable treprostinil prodrugs” (United Therapeutics Corporation, priority 2020, dated 2025).
Like-named read-outs stand apart in the source and are kept apart here. Each block holds one molecule with its values, some of them ahead of it.

Assays:
[1] = Stability in liver microsomes, human; conditions: for AUC: human
[2] = Stability in cryopreserved hepatocytes, dog; conditions: for AUC: dog
[3] = Stability in human subcutaneous skin homogenate; conditions: for AUC: human
[4] = Stability in liver microsomes, rat
[5] = Stability in liver microsomes, dog
[6] = dog
[7] = Stability in cryopreserved hepatocytes, rat; conditions: for AUC: rat
[8] = rat
[9] = Stability in cryopreserved hepatocytes, human; conditions: for AUC: human

Trep Concentration 0 min [1]: 0.02 µM
Trep Concentration 10 min [1]: 0.038 µM
Trep Concentration 20 min [1]: 0.038 µM
Trep Concentration 30 min [1]: 0.03 µM
Trep Concentration 60 min [1]: 0.061 µM
AUC [1]: 2.38 µmol·min/L
Trep Concentration (μM) 0 min [2]: 0.0124 µM
Trep Concentration (μM) 30 min [2]: 0.609 µM
Trep Concentration (μM) 60 min [2]: 0.533 µM
Trep Concentration (μM) 120 min [2]: 0.548 µM
AUC [2]: 62.94 µmol·min/L
Trep Concentration 0 min [3]: 0 µM
Trep Concentration 30 min [3]: 0.6 µM
Trep Concentration 60 min [3]: 0.93 µM
Trep Concentration 120 min [3]: 1.07 µM
AUC [3]: 91.95 µmol·min/L
Trep Concentration 0 min [4]: 0.27 µM
Trep Concentration 10 min [4]: 0.39 µM
Trep Concentration 20 min [4]: 0.46 µM
Trep Concentration 30 min [4]: 0.53 µM
Trep Concentration 60 min [4]: 0.73 µM
Trep Concentration 0 min [5]: 0.21 µM
Trep Concentration 10 min [5]: 0.32 µM
Trep Concentration 20 min [5]: 0.43 µM
Trep Concentration 30 min [5]: 0.48 µM
Trep Concentration 60 min [5]: 0.75 µM
AUC [6]: 29.40 µmol·min/L
Trep Concentration (μM) 0 min [7]: 0.128 µM
Trep Concentration (μM) 15 min [7]: 0.693 µM
Trep Concentration (μM) 30 min [7]: 0.635 µM
Trep Concentration (μM) 60 min [7]: 0.564 µM
Trep Concentration (μM) 120 min [7]: 0.53 µM
AUC [7]: 66.92 µmol·min/L
AUC [8]: 31.40 µmol·min/L
Trep Concentration (μM) 0 min [9]: 0 µM
Trep Concentration (μM) 15 min [9]: 0.223 µM
Trep Concentration (μM) 30 min [9]: 0.365 µM
Trep Concentration (μM) 60 min [9]: 0.466 µM
Trep Concentration (μM) 120 min [9]: 0.540 µM
AUC [9]: 48.73 µmol·min/L
Compound: CCCCCC(CCC1C(O)CC2Cc3c(cccc3OCC(=O)O)CC21)OP(=O)(O)O (stereo not drawn) [VI]

Trep Concentration 0 min [1]: 0 µM
Trep Concentration 10 min [1]: 0.0147 µM
Trep Concentration 20 min [1]: 0 µM
Trep Concentration 30 min [1]: 0.0153 µM
Trep Concentration 60 min [1]: 0.00987 µM
AUC [1]: 0.60 µmol·min/L
Trep Concentration (μM) 0 min [2]: 0 µM
Trep Concentration (μM) 15 min [2]: 0.0424 µM
Trep Concentration (μM) 30 min [2]: 0.0879 µM
Trep Concentration (μM) 60 min [2]: 0.147 µM
Trep Concentration (μM) 120 min [2]: 0.248 µM
AUC [2]: 16.67 µmol·min/L
Trep Concentration 0 min [3]: 0 µM
Trep Concentration 30 min [3]: 0 µM
Trep Concentration 60 min [3]: 0.0137 µM
Trep Concentration 120 min [3]: 0.0304 µM
AUC [3]: 1.53 µmol·min/L
Trep Concentration 0 min [4]: 0 µM
Trep Concentration 10 min [4]: 0 µM
Trep Concentration 20 min [4]: 0 µM
Trep Concentration 30 min [4]: 0 µM
Trep Concentration 60 min [4]: 0 µM
Trep Concentration 0 min [5]: 0.0163 µM
Trep Concentration 20 min [5]: 0.0295 µM
Trep Concentration 30 min [5]: 0.0273 µM
Trep Concentration 60 min [5]: 0.0415 µM
AUC [6]: 1.72 µmol·min/L
Trep Concentration (μM) 0 min [7]: 0 µM
Trep Concentration (μM) 15 min [7]: 0.0136 µM
Trep Concentration (μM) 30 min [7]: 0.0199 µM
Trep Concentration (μM) 60 min [7]: 0.106 µM
Trep Concentration (μM) 120 min [7]: 0.0527 µM
AUC [7]: 7.00 µmol·min/L
AUC [8]: 0.00 µmol·min/L
Trep Concentration (μM) 0 min [9]: 0 µM
Trep Concentration (μM) 15 min [9]: 0.0481 µM
Trep Concentration (μM) 30 min [9]: 0.041 µM
Trep Concentration (μM) 60 min [9]: 0.0715 µM
Trep Concentration (μM) 120 min [9]: 0.115 µM
AUC [9]: 8.31 µmol·min/L
Compound: CCCCCC(CCC1C(O)CC2Cc3c(cccc3OCC(=O)O)CC21)OC(=O)CCN (stereo not drawn) [XXXVII]

Trep Concentration 0 min [1]: 0.624 µM
Trep Concentration 10 min [1]: 0.632 µM
Trep Concentration 20 min [1]: 0.549 µM
Trep Concentration 30 min [1]: 0.52 µM
Trep Concentration 60 min [1]: 0.307 µM
AUC [1]: 29.94 µmol·min/L
Trep Concentration (μM) 0 min [2]: 0.0501 µM
Trep Concentration (μM) 15 min [2]: 0.587 µM
Trep Concentration (μM) 30 min [2]: 0.545 µM
Trep Concentration (μM) 60 min [2]: 0.475 µM
Trep Concentration (μM) 120 min [2]: 0.404 µM
AUC [2]: 54.94 µmol·min/L
Trep Concentration 0 min [3]: 0 µM
Trep Concentration 30 min [3]: 0.0277 µM
Trep Concentration 60 min [3]: 0.0597 µM
Trep Concentration 120 min [3]: 0.106 µM
AUC [3]: 6.70 µmol·min/L
Trep Concentration 0 min [4]: 0.0772 µM
Trep Concentration 10 min [4]: 0.114 µM
Trep Concentration 20 min [4]: 0.157 µM
Trep Concentration 30 min [4]: 0.197 µM
Trep Concentration 60 min [4]: 0.284 µM
Trep Concentration 0 min [5]: 0.913 µM
Trep Concentration 10 min [5]: 0.884 µM
Trep Concentration 20 min [5]: 0.828 µM
Trep Concentration 30 min [5]: 0.894 µM
Trep Concentration 60 min [5]: 0.899 µM
AUC [6]: 53.05 µmol·min/L
Trep Concentration (μM) 0 min [7]: 0.0352 µM
Trep Concentration (μM) 15 min [7]: 0.186 µM
Trep Concentration (μM) 30 min [7]: 0.307 µM
Trep Concentration (μM) 60 min [7]: 0.393 µM
Trep Concentration (μM) 120 min [7]: 0.514 µM
AUC [7]: 43.07 µmol·min/L
AUC [8]: 11.30 µmol·min/L
Trep Concentration (μM) 0 min [9]: 0.0377 µM
Trep Concentration (μM) 15 min [9]: 0.406 µM
Trep Concentration (μM) 30 min [9]: 0.534 µM
Trep Concentration (μM) 60 min [9]: 0.553 µM
Trep Concentration (μM) 120 min [9]: 0.506 µM
AUC [9]: 58.45 µmol·min/L
Compound: CCCCCC(CCC1C(O)CC2Cc3c(cccc3OCC(=O)O)CC21)OC(=O)CO (stereo not drawn) [XLIV]

Trep Concentration 0 min [1]: 0 µM
Trep Concentration 10 min [1]: 0.0342 µM
Trep Concentration 20 min [1]: 0.0556 µM
Trep Concentration 30 min [1]: 0.0656 µM
Trep Concentration 60 min [1]: 0.0835 µM
AUC [1]: 3.46 µmol·min/L
Trep Concentration (μM) 0 min [2]: 0 µM
Trep Concentration (μM) 15 min [2]: 0.00361 µM
Trep Concentration (μM) 30 min [2]: 0.00376 µM
Trep Concentration (μM) 60 min [2]: 0.00437 µM
Trep Concentration (μM) 120 min [2]: 0.00465 µM
AUC [2]: 0.47 µmol·min/L
Trep Concentration 0 min [3]: 0 µM
Trep Concentration 30 min [3]: 0 µM
Trep Concentration 60 min [3]: 0 µM
Trep Concentration 120 min [3]: 0 µM
AUC [3]: 0.00 µmol·min/L
Trep Concentration 0 min [4]: 0 µM
Trep Concentration 10 min [4]: 0.0425 µM
Trep Concentration 20 min [4]: 0.0633 µM
Trep Concentration 30 min [4]: 0.0882 µM
Trep Concentration 60 min [4]: 0.123 µM
Trep Concentration 0 min [5]: 0 µM
Trep Concentration 10 min [5]: 0.0211 µM
Trep Concentration 20 min [5]: 0.0334 µM
Trep Concentration 30 min [5]: 0.0485 µM
Trep Concentration 60 min [5]: 0.0841 µM
AUC [6]: 2.78 µmol·min/L
Trep Concentration (μM) 0 min [7]: 0 µM
Trep Concentration (μM) 15 min [7]: 0.0144 µM
Trep Concentration (μM) 30 min [7]: 0.0194 µM
Trep Concentration (μM) 60 min [7]: 0.0209 µM
Trep Concentration (μM) 120 min [7]: 0.0224 µM
AUC [7]: 2.27 µmol·min/L
AUC [8]: 4.67 µmol·min/L
Trep Concentration (μM) 0 min [9]: 0 µM
Trep Concentration (μM) 15 min [9]: 0.00507 µM
Trep Concentration (μM) 30 min [9]: 0.00509 µM
Trep Concentration (μM) 60 min [9]: 0.00568 µM
Trep Concentration (μM) 120 min [9]: 0.0061 µM
AUC [9]: 0.63 µmol·min/L
Compound: CCCCCC(CCC1C(O)CC2Cc3c(cccc3OCC(=O)O)CC21)OCCC (stereo not drawn) [XLVI]
